# Experimental data as given in patent US10543212B2, “Substituted amines for treating cardiac diseases” (Cardurion Pharmaceuticals, LLC, priority 2017, dated 2020).
# Read-outs that look alike come from different tables or passages of the source.
# Key:
# [1] = target: T1, Human full-length CaMKIIδ (Homo sapiens, UniProt Q13557); assay: Human CaMKII enzyme inhibition assay (radiometric kinase assay); type: biochemical; conditions: 3 μM compound; 500 nM ATP; 0.5 nM CaMKIIδ; read-out: CaMKIIδ inhibitory activity (%) at 3 μM
# T1 construct: Human full-length CaMKIIδ (Cat #02-111) was obtained from Carna Biosciences; GST; purchased Carna Biosciences 02-111
# Summary of the method: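 Radiometric [γ-33P]ATP assay: 0.5 nM CaMKIIδ and 0.1 μM autophosphorylation peptide in HEPES pH 7.5 with Ca2+/calmodulin, with 500 nM ATP. Enzyme was preincubated with compound for 5 min, then reacted 60 min at RT. Value is % inhibition at 3 μM compound, relative to no-enzyme and no-inhibitor controls.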
# [2] = target: T2, Full-length, GST-tagged, human CaMKIIδ (Homo sapiens, UniProt Q13557); assay: CaMKIIδ binding assay (TR-FRET with BODIPY-labeled probe ligand)
# T2 construct: Full-Length, Glutathione-S-Transferase(GST)-Tagged, Human CaMKIIδ was purchased from Carna Biosciences; purchased Carna Biosciences 02-111
# Summary of the method: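 Compounds were tested as 4-fold, eight-point series for 1 hr at room temperature, and IC50 was obtained by logistic fitting against a 3 μM parent-compound control. Signal came from displacement of a 300 nM BODIPY ligand from 0.5 nM GST-CaMKIIδ, detected via Tb-anti-GST in calmodulin/Ca2+ (pH 7.6).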
# [3] = system: phosphorylation of CaMKII-specific site of phospholamban (Thr17, PLN) in the heart; assay: In vivo cardiac CaMKII inhibition (P-PLN Thr17 in rat left ventricle, Western blotting); conditions: po, male SD rat left ventricle, vs vehicle-treated group, read-out: Reduction rate of P-PLN; for inhibition in vivo at 30 mg/kg: 30 mg/kg p.o.
# Procedure: To evaluate potency of test compounds to inhibit cardiac CaMKII kinase in vivo, phosphorylation levels of CaMKII-specific sites of phospholamban (Thr17, PLN) were measured in the heart of rats administered with test compounds at various doses.
# Test compounds were suspended in 0.5% [w/v] methylcellulose/water solution and administered (10 or 30 mg/kg) to male CD (SD) IGS rat (6-8 weeks old, n=4) by the p.o. route (5 mL/kg). At 2-4 hours after the administration, rats were sacrificed and the hearts were harvested. After washing the isolated hearts with ice-cold saline, connective tissues were removed on ice, and the isolated left ventricle were frozen into liquid nitrogen gas and stored at −80° C.
# The left ventricle samples were homogenized in RIPA-buffer containing phosphatase inhibitors and protease inhibitors. Samples were analyzed by Western blotting using anti-P-PLN (Thr17, Santa Cruz Biotechnology, sc-17024-R) antibody. The band intensities were quantified using an imaging system and were normalized relative to the vehicle-treated group.
# [4] = Table 2, activity class for CaMKIIδ
# [5] = Table 2, CaMKIIδ binding assay, activity given as class A/B/C
# [6] = CaMKIIδ binding assay, activity class per Table 2
# T2 sequence (Q13557 1-478 isoform Q13557-12): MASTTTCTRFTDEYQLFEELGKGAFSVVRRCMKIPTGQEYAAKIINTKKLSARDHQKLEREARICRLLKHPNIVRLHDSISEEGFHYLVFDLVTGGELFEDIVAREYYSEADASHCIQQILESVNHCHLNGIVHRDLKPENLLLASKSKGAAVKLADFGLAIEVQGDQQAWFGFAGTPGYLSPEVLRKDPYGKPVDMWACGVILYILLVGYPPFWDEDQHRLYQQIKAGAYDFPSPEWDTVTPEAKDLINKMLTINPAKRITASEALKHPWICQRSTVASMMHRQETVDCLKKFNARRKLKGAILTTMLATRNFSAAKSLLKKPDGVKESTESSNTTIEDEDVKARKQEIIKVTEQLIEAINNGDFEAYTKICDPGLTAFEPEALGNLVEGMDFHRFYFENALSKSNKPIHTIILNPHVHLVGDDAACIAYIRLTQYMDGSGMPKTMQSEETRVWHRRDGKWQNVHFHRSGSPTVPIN
SMILES,inhibition at 3 µM [1],inhibition in vivo at 30 mg/kg ([3]; 2 hr after administration),"IC50 [2, 5]",also measured
"Cn1cc(Nc2ncc(-c3ccc(C#N)c(O[C@@H](CO)Cn4cccn4)c3)cn2)cn1 [Example 402, 2-(((2R)-1-hydroxy-3-(1H-pyrazol-1-yl)propan-2-yl)oxy)-4-(2-((1-methyl-1H-pyrazol-4-yl)amino)pyrimidin-5-yl)benzonitrile]",82%,–,–,–
"C[C@@H](Cn1cnnn1)Oc1cc(-c2cnc(Nc3cnn(C)c3)nc2)ccc1C#N [Example 410, 4-(2-((1-methyl-1H-pyrazol-4-yl)amino)pyrimidin-5-yl)-2-(((2S)-1-(1H-tetrazol-1-yl)propan-2-yl)oxy)benzonitrile]",99%,–,–,–
"C[C@@H](Cn1ncnn1)Oc1cc(-c2cnc(Nc3cnn(C)c3)nc2)ccc1C#N [Example 411, 4-(2-((1-methyl-1H-pyrazol-4-yl)amino)pyrimidin-5-yl)-2-(((2S)-1-(2H-tetrazol-2-yl)propan-2-yl)oxy)benzonitrile]",93%,–,–,–
"C[C@@H](Cc1ccn[nH]1)Oc1cc(-c2cnc(Nc3cnn(C)c3)nc2)ccc1C#N [Example 412, 4-(2-((1-methyl-1H-pyrazol-4-yl)amino)pyrimidin-5-yl)-2-(((2S)-1-(1H-pyrazol-5-yl)propan-2-yl)oxy)benzonitrile]",96%,–,–,–
"C[C@@H](O)Cn1cc(Nc2ncc(-c3ccc(C#N)c(O[C@@H](C)Cn4cncn4)c3)cn2)cn1 [Example 416, 4-(2-((1-((2R)-2-hydroxypropyl)-1H-pyrazol-4-yl)amino)pyrimidin-5-yl)-2-(((2S)-1-(1H-1,2,4-triazol-1-yl)propan-2-yl)oxy)benzonitrile]",98%,–,–,–
"C[C@@H](Cn1cnnn1)Oc1cc(-c2cnc(Nc3cn(C4CCN(C5CCOCC5)CC4)nc3C(F)(F)F)nc2)ccc1Cl [Example 484, (S)-5-(3-((1-(1H-tetrazol-1-yl)propan-2-yl)oxy)-4-chlorophenyl)-N-(1-(1-(tetrahydro-2H-pyran-4-yl)piperidin-4-yl)-3-(trifluoromethyl)-1H-pyrazol-4-yl)pyrimidin-2-amine]",–,> 50%,–,"IC50 ([2]; CaMKIIδ binding assay, results of Table 2): < 0.01 µM"
"C[C@@H](Cn1cnnn1)Oc1cc(-c2cnc(Nc3cn(C4CCN(C5CCOCC5)CC4)nc3OCC(F)(F)F)nc2)ccc1Cl [Example 677, (S)-5-(3-((1-(1H-tetrazol-1-yl)propan-2-yl)oxy)-4-chlorophenyl)-N-(1-(1-(tetrahydro-2H-pyran-4-yl)piperidin-4-yl)-3-(2,2,2-trifluoroethoxy)-1H-pyrazol-4-yl)pyrimidin-2-amine]",–,> 50%,–,"IC50 [2, 4]: < 0.01 µM"
"C[C@@H](Cn1cnnn1)Oc1cc(-c2cnc(Nc3cn([C@H]4CC[C@H](N5CCOCC5)CC4)nc3C(F)(F)F)nc2)ccc1Cl [Example 695, 5-(3-(((S)-1-(1H-tetrazol-1-yl)propan-2-yl)oxy)-4-chlorophenyl)-N-(1-(trans-4-morpholinocyclohexyl)-3-(trifluoromethyl)-1H-pyrazol-4-yl)pyrimidin-2-amine]",–,> 50%,–,"IC50 [2, 4]: < 0.01 µM"
"C[C@@H](Cn1cnnn1)Oc1cc(-c2cnc(Nc3cn([C@H]4CC[C@H](N5CCOCC5)CC4)nc3OCC(F)(F)F)nc2)ccc1Cl [Example 772, 5-(3-(((S)-1-(1H-tetrazol-1-yl)propan-2-yl)oxy)-4-chlorophenyl)-N-(1-(trans-4-morpholinocyclohexyl)-3-(2,2,2-trifluoroethoxy)-1H-pyrazol-4-yl)pyrimidin-2-amine]",–,> 50%,< 0.01 µM,–
"C[C@@H](Cn1cnnn1)Oc1cc(-c2cnc(Nc3cn(C4CC5(C4)CN(C4CCOCC4)C5)nc3OCC(F)(F)F)nc2)ccc1Cl [Example 795, (S)-5-(3-((1-(1H-tetrazol-1-yl)propan-2-yl)oxy)-4-chlorophenyl)-N-(1-(2-(tetrahydro-2H-pyran-4-yl)-2-azaspiro[3.3]heptan-6-yl)-3-(2,2,2-trifluoroethoxy)-1H-pyrazol-4-yl)pyrimidin-2-amine]",–,> 50%,< 0.01 µM,–
"C[C@@H](Cn1cnnn1)Oc1cc(-c2cnc(Nc3cn([C@H]4CC[C@H](N5CCOCC5)CC4)nc3OCC(F)F)nc2)ccc1Cl [Example 806, 5-(3-(((S)-1-(1H-tetrazol-1-yl)propan-2-yl)oxy)-4-chlorophenyl)-N-(3-(2,2-difluoroethoxy)-1-(trans-4-morpholinocyclohexyl)-1H-pyrazol-4-yl)pyrimidin-2-amine]",–,> 50%,< 0.01 µM,–
"C[C@@H](Cn1cnnn1)Oc1cc(-c2cnc(Nc3cn(C4CC5(C4)CN(C4CCOCC4)C5)nc3C(F)(F)F)nc2)ccc1Cl [Example 831, (S)-5-(3-((1-(1H-tetrazol-1-yl)propan-2-yl)oxy)-4-chlorophenyl)-N-(1-(2-(tetrahydro-2H-pyran-4-yl)-2-azaspiro[3.3]heptan-6-yl)-3-(trifluoromethyl)-1H-pyrazol-4-yl)pyrimidin-2-amine]",–,–,< 0.01 µM,inhibition in vivo at 30 mg/kg ([3]; 4 hr after administration): > 50%
"CC(C)c1nn([C@H]2CC[C@H](N3CCOCC3)CC2)cc1Nc1ncc(-c2ccc(Cl)c(O[C@@H](C)Cn3cnnn3)c2)cn1 [Example 843, 5-(3-(((S)-1-(1H-tetrazol-1-yl)propan-2-yl)oxy)-4-chlorophenyl)-N-(3-isopropyl-1-(trans-4-morpholinocyclohexyl)-1H-pyrazol-4-yl)pyrimidin-2-amine]",–,–,< 0.01 µM,"inhibition in vivo at 10 mg/kg ([3]; 10 mg/kg p.o., 4 hr after administration): > 50%"
"C[C@@H](Cn1cnnn1)Oc1cc(-c2cnc(Nc3cn(C4CC5(C4)CN(CC(C)(C)O)C5)nc3OCC(F)(F)F)nc2)ccc1Cl [Example 946, (S)-1-(6-(4-((5-(3-((1-(1H-tetrazol-1-yl)propan-2-yl)oxy)-4-chlorophenyl)pyrimidin-2-yl)amino)-3-(2,2,2-trifluoroethoxy)-1H-pyrazol-1-yl)-2-azaspiro[3.3]heptan-2-yl)-2-methylpropan-2-ol]",–,–,–,"IC50 [2, 6]: < 0.01 µM; inhibition in vivo at 30 mg/kg ([3]; 4 hr after administration): > 50%"
"CC(=O)OC(C)(C)CN1CC2(CC(n3cc(Nc4ncc(-c5ccc(Cl)c(O[C@@H](C)Cn6cnnn6)c5)cn4)c(OCC(F)(F)F)n3)C2)C1 [Example 951, 1-[6-(4-{[5-(4-chloro-3-{[(2S)-1-(1H-tetrazol-1-yl)propan-2-yl]oxy}phenyl)pyrimidin-2-yl]amino}-3-(2,2,2-trifluoroethoxy)-1H-pyrazol-1-yl)-2-azaspiro[3.3]heptan-2-yl]-2-methylpropan-2-yl acetate]",–,–,–,"IC50 [2, 6]: < 0.01 µM; inhibition in vivo at 30 mg/kg ([3]; 4 hr after administration): > 50%"
